pIC50: −log10 of the molar value.
System: A375-luc cells
Assay: A375 Cellular Proliferation Assay
Format: cell-based
Settings: Homo sapiens, A-375, 48 h; A375-luc melanoma cells (B-Raf V600E), 2 days incubation, BrightGlo luminescence; read-out: A375 CP IC50
Description: A375 Cellular Proliferation Assay
A375 is a melanoma cell line that harbors the B-Raf V600E mutation. A375-luc cells engineered to express luciferase are plated to 384-well white clear bottom plates as 1,500 cells/50 μl/well in DMEM containing 10% FBS. Compounds of the invention dissolved in 100% DMSO at appropriate concentrations are transferred to the cells by a robotic Pin Tool (100 nl). The cells are incubated for 2 days at […], then 25 μl of BrightGlo™ is added to each well and the plates are read by luminescence. The concentration of each compound for 50% inhibition (IC50) was calculated by non-linear regression using XL Fit data analysis software.

**Q.** With CCCS(=O)(=O)Nc1ncc(F)c(Nc2nccnc2-c2cc(NCC)ncn2)c1F [Compound 1, N-(4-(3-(6-(Ethylamino)pyrimidin-4-yl)pyrazin-2-ylamino)-3,5-difluoropyridin-2-yl)propane-1-sulfonamide] as the compound, how does the pIC50 read?
**A.** 7.89

**Q.** With CCCS(=O)(=O)Nc1ncc(F)c(Nc2nccnc2-c2cc(NCCC#N)ncn2)c1F [Compound 2, N-(4-(3-(6-(2-cyanoethylamino)pyrimidin-4-yl)pyrazin-2-ylamino)-3,5-difluoropyridin-2-yl)propane-1-sulfonamide] as the compound, how does the pIC50 read?
**A.** 8.52

**Q.** CCCS(=O)(=O)Nc1ncc(F)c(Nc2nccnc2-c2cc(NCCC(F)(F)F)ncn2)c1F [Compound 3, N-(3,5-difluoro-4-(3-(6-(3,3,3-trifluoropropylamino)pyrimidin-4-yl)pyrazin-2-ylamino)pyridin-2-yl)propane-1-sulfonamide] was tested. Which pIC50 did it give?
**A.** 7.68

**Q.** With CCCS(=O)(=O)Nc1ncc(F)c(Nc2nccnc2-c2cc(NCC(F)F)ncn2)c1F [Compound 4, N-(4-(3-(6-(2,2-difluoroethylamino)pyrimidin-4-yl)pyrazin-2-ylamino)-3,5-difluoropyridin-2-yl)propane-1-sulfonamide] as the compound, how does the pIC50 read?
**A.** 7.92

**Q.** CCCS(=O)(=O)Nc1ncc(F)c(Nc2nccnc2-c2cc(NC)ncn2)c1F [Compound 5, N-(3,5-difluoro-4-(3-(6-(methylamino)pyrimidin-4-yl)pyrazin-2-ylamino)pyridin-2-yl)propane-1-sulfonamide] was tested. Which pIC50 did it give?
**A.** 7.51

**Q.** With CCCS(=O)(=O)Nc1ncc(F)c(Nc2nccnc2-c2cc(NCC)ncn2)c1Cl [Compound 6, N-(3-chloro-4-(3-(6-(ethylamino)pyrimidin-4-yl)pyrazin-2-ylamino)-5-fluoropyridin-2-yl)propane-1-sulfonamide] as the compound, how does the pIC50 read?
**A.** 6.92

**Q.** CCCS(=O)(=O)Nc1ncc(F)c(Nc2nccnc2-c2cc(NCC(F)(F)F)ncn2)c1F [Compound 7, N-(3,5-difluoro-4-(3-(6-(2,2,2-trifluoroethylamino)pyrimidin-4-yl)pyrazin-2-ylamino)pyridin-2-yl)propane-1-sulfonamide] was tested. Which pIC50 did it give?
**A.** 7.31

**Q.** How did the pIC50 turn out when CCCS(=O)(=O)Nc1ncc(F)c(Nc2nccnc2-c2cc(NCCS(C)(=O)=O)ncn2)c1F [Compound 8, N-(3,5-difluoro-4-(3-(6-(2-(methylsulfonyl)ethylamino)pyrimidin-4-yl)pyrazin-2-ylamino)pyridin-2-yl)propane-1-sulfonamide] was run?
**A.** 6.72

**Q.** How did the pIC50 turn out when CCCS(=O)(=O)Nc1ncc(F)c(-c2cc3cnc(NC)nc3n(C)c2=O)c1F [Compound 10, N-(3,5-difluoro-4-(8-methyl-2-(methylamino)-7-oxo-7,8-dihydropyrido[2,3-d]pyrimidin-6-yl)pyridin-2-yl)propane-1-sulfonamide] was run?
**A.** 7.25

**Q.** How did the pIC50 turn out when CCCS(=O)(=O)Nc1nccc(-c2cc3cnc(NC)nc3n(C)c2=O)c1F [Compound 11, N-(3-fluoro-4-(8-methyl-2-(methylamino)-7-oxo-7,8-dihydropyrido[2,3-d]pyrimidin-6-yl)pyridin-2-yl)propane-1-sulfonamide] was run?
**A.** 6.64

**Q.** CCCS(=O)(=O)Nc1ncc(F)c(-c2cc3cnc(NC[C@H](C)NC(=O)OC)nc3n(C)c2=O)c1F [Compound 12, (S)-methyl 1-(6-(3,5-difluoro-2-(propylsulfonamido)pyridin-4-yl)-8-methyl-7-oxo-7,8-dihydropyrido[2,3-d]pyrimidin-2-ylamino)propan-2-ylcarbamate] was tested. Which pIC50 did it give?
**A.** 7.85

**Q.** How did the pIC50 turn out when CCCS(=O)(=O)Nc1ncc(F)c(-c2cc3cnc(NCC)cc3n(C)c2=O)c1F [Compound 13, N-(4-(7-(Ethylamino)-1-methyl-2-oxo-1,2-dihydro-1,6-naphthyridin-3-yl)-3,5-difluoropyridin-2-yl)propane-1-sulfonamide] was run?
**A.** 8.00

**Q.** With CNc1ncc2cc(-c3c(F)cnc(NS(=O)(=O)CCC(F)(F)F)c3F)c(=O)n(C)c2n1 [Compound 14, N-(3,5-difluoro-4-(8-methyl-2-(methylamino)-7-oxo-7,8-dihydropyrido[2,3-d]pyrimidin-6-yl)pyridin-2-yl)-3,3,3-trifluoropropane-1-sulfonamide] as the compound, how does the pIC50 read?
**A.** 6.89

**Q.** With CCCS(=O)(=O)Nc1ncc(F)c(-c2cc3cnc(NCCC#N)cc3n(C)c2=O)c1F [Compound 15, N-(4-(7-(2-cyanoethylamino)-1-methyl-2-oxo-1,2-dihydro-1,6-naphthyridin-3-yl)-3,5-difluoropyridin-2-yl)propane-1-sulfonamide] as the compound, how does the pIC50 read?
**A.** 7.92

From patent US9181238B2, “N-(pyridin-2-yl)sulfonamides and compositions thereof as protein kinase inhibitors” (NOVARTIS AG, priority 2010, dated 2015)
